Tests used:
[1] = system: A549 cells; assay: Proliferation Assay (A549 viability, Cell Titer Fluor, 72 hours); type: cell-based; details: Homo sapiens, A549, 72 h
Method in brief: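 A549 cells seeded at 1000 cells/well, rested 24 h, then exposed to compound in 0.5% DMSO for 72 h at 37 °C. Viability read by Cell Titer Fluor fluorescence; IC50 from four-parameter logistic fit.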

[2] = target: purified recombinant human GAC (GLS1) (Homo sapiens (Human), UniProt O94925); assay: GLS1 Enzymatic Activity Assay (dual-coupled enzymatic assay, resorufin/Amplex UltraRed readout); type: biochemical;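 further: glutamate from GAC coupled via glutamate oxidase and peroxidase to resorufin, read as fluorescence (ex 530, em 590 nm) kinetically or at 20 min, four-parameter logistic IC50 fit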
Chain of purified recombinant human GAC (GLS1) (O94925 other isoform, or with tags, fused parts or gaps): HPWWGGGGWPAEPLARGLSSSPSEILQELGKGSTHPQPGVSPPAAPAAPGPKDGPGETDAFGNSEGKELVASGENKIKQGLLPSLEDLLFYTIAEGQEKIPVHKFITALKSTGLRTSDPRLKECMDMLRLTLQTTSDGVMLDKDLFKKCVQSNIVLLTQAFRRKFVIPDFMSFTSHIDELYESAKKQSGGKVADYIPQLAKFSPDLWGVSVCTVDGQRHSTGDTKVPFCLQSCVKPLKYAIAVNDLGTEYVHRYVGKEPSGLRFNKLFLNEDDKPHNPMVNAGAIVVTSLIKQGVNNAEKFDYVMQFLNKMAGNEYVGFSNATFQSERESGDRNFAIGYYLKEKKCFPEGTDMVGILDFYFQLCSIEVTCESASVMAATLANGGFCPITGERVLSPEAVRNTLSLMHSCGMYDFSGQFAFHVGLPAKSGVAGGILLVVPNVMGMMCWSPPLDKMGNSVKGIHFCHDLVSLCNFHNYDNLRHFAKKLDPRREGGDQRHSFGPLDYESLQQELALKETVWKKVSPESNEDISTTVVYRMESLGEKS

| SMILES | EC50 [1] [nM] | IC50 [2] [nM] |
| --- | --- | --- |
| O=C(Cc1cccc(OC(F)(F)F)c1)Nc1cn(CC(F)CCn2cc(C(=O)NCc3cccc(OC(F)(F)F)c3)nn2)nn1 (centres unmarked) [Example 339, 1-[3-fluoro-4-(4-{2-[3-(trifluoromethoxy)phenyl]acetamido}-1H-1,2,3-triazol-1-yl)butyl]-N-{[3-(trifluoromethoxy)phenyl]methyl}-1H-1,2,3-triazole-4-carboxamide] | < 100 | < 100 |
| O=C(Cc1cccc(OC(F)(F)F)c1)Nc1cn(CC(F)CCn2cc(C(=O)NCc3cc(OC(F)(F)F)ccc3F)nn2)nn1 (centres unmarked) [Example 340, 1-[3-fluoro-4-(4-{2-[3-(trifluoromethoxy)phenyl]acetamido}-1H-1,2,3-triazol-1-yl)butyl]-N-{[2-fluoro-5-(trifluoromethoxy)phenyl]methyl}-1H-1,2,3-triazole-4-carboxamide] | < 100 | < 100 |
| Cc1ccc(CC(=O)Nc2cn(CC(F)CCn3cc(C(=O)NCc4ccccn4)nn3)nn2)cn1 (centres unmarked) [Example 344, 1-(3-fluoro-4-{4-[2-(6-methylpyridin-3-yl)acetamido]-1H-1,2,3-triazol-1-yl}butyl)-N-(pyridin-2-ylmethyl)-1H-1,2,3-triazole-4-carboxamide] | > 5000 | 100 to 500 |
| Cc1ccc(CC(=O)Nc2cn(CC(F)CCn3cc(C(=O)NCc4ncccc4F)nn3)nn2)cn1 (centres unmarked) [Example 345, 1-(3-fluoro-4-{4-[2-(6-methylpyridin-3-yl)acetamido]-1H-1,2,3-triazol-1-yl}butyl)-N-[(3-fluoropyridin-2-yl)methyl]-1H-1,2,3-triazole-4-carboxamide] | > 5000 | 100 to 500 |
| Cc1ccc(CNC(=O)c2cn(CCC(F)Cn3cc(NC(=O)Cc4ccc(C)nc4)nn3)nn2)cn1 (centres unmarked) [Example 346, 1-(3-fluoro-4-{4-[2-(6-methylpyridin-3-yl)acetamido]-1H-1,2,3-triazol-1-yl}butyl)-N-[(6-methylpyridin-3-yl)methyl]-1H-1,2,3-triazole-4-carboxamide] | 500 to 5000 | < 100 |
| O=C(CN1CC(F)(F)C1)Nc1cn(CCCCn2cc(C(=O)NCc3cc(Cl)ccc3F)nn2)nn1 [Example 352, N-[(5-chloro-2-fluorophenyl)methyl]-1-(4-{4-[2-(3,3-difluoroazetidin-1-yl)acetamido]-1H-1,2,3-triazol-1-yl}butyl)-1H-1,2,3-triazole-4-carboxamide] | 500 to 5000 | 100 to 500 |
| O=C(CN1CCC(F)(F)C1)Nc1cn(CCCCn2cc(C(=O)NCc3cc(Cl)ccc3F)nn2)nn1 [Example 355, N-[(5-chloro-2-fluorophenyl)methyl]-1-(4-{4-[2-(3,3-difluoropyrrolidin-1-yl)acetamido]-1H-1,2,3-triazol-1-yl}butyl)-1H-1,2,3-triazole-4-carboxamide] | 100 to 500 | 100 to 500 |
| O=C(CN1CCC(F)(F)CC1)Nc1cn(CCCCn2cc(C(=O)NCc3cc(Cl)ccc3F)nn2)nn1 [Example 359, N-[(5-chloro-2-fluorophenyl)methyl]-1-(4-{4-[2-(4,4-difluoropiperidin-1-yl)acetamido]-1H-1,2,3-triazol-1-yl}butyl)-1H-1,2,3-triazole-4-carboxamide] | 100 to 500 | 100 to 500 |
| Cc1ccc(CNC(=O)c2cn(CCC(F)Cn3cc(NC(=O)Cc4ccccn4)nn3)nn2)cn1 (centres unmarked) [Example 364, 1-(3-fluoro-4-{4-[2-(pyridin-2-yl)acetamido]-1H-1,2,3-triazol-1-yl}butyl)-N-[(6-methylpyridin-3-yl)methyl]-1H-1,2,3-triazole-4-carboxamide] | 500 to 5000 | 100 to 500 |
| Cc1ccc(CNC(=O)c2cn(CC(F)CCn3cc(C(=O)NCc4cc(OC(F)(F)F)ccc4F)nn3)nn2)cn1 (centres unmarked) [Example 368, 1-{2-fluoro-4-[4-({[2-fluoro-5-(trifluoromethoxy)phenyl]methyl}carbamoyl)-1H-1,2,3-triazol-1-yl]butyl}-N-[(6-methylpyridin-3-yl)methyl]-1H-1,2,3-triazole-4-carboxamide] | < 100 | < 100 |

Second part, the compound after the results:

| EC50 [1] [nM] | IC50 [2] [nM] | SMILES |
| --- | --- | --- |
| < 100 | < 100 | Cc1ccc(CC(=O)Nc2cn(CCCCn3cc(C(=O)NCc4cc(OC(F)(F)F)ccc4F)nn3)nn2)cn1 [Example 335, N-{[2-fluoro-5-(trifluoromethoxy)phenyl]methyl}-1-(4-{4-[2-(6-methylpyridin-3-yl)acetamido]-1H-1,2,3-triazol-1-yl}butyl)-1H-1,2,3-triazole-4-carboxamide] |
| 100 to 500 | < 100 | Cc1ccc(CC(=O)Nc2cn(CCCCn3cc(C(=O)NCc4cc(Cl)ccc4F)nn3)nn2)cn1 [Example 336, N-[(5-chloro-2-fluorophenyl)methyl]-1-(4-{4-[2-(6-methylpyridin-3-yl)acetamido]-1H-1,2,3-triazol-1-yl}butyl)-1H-1,2,3-triazole-4-carboxamide] |
| < 100 | < 100 | O=C(Cc1ccccn1)Nc1cn(CCCCn2cc(C(=O)NCc3cc(OC(F)(F)F)ccc3F)nn2)nn1 [Example 337, N-{[2-fluoro-5-(trifluoromethoxy)phenyl]methyl}-1-(4-{4-[2-(pyridin-2-yl)acetamido]-1H-1,2,3-triazol-1-yl}butyl)-1H-1,2,3-triazole-4-carboxamide] |
| 100 to 500 | < 100 | O=C(Cc1ccccn1)Nc1cn(CCCCn2cc(C(=O)NCc3cc(Cl)ccc3F)nn2)nn1 [Example 338, N-[(5-chloro-2-fluorophenyl)methyl]-1-(4-{4-[2-(pyridin-2-yl)acetamido]-1H-1,2,3-triazol-1-yl}butyl)-1H-1,2,3-triazole-4-carboxamide] |
| 100 to 500 | < 100 | O=C(Cc1cccc(OC(F)(F)F)c1)Nc1cn(CC(F)CCn2cc(C(=O)NCc3ncccc3F)nn2)nn1 (centres unmarked) [Example 341, 1-[3-fluoro-4-(4-{2-[3-(trifluoromethoxy)phenyl]acetamido}-1H-1,2,3-triazol-1-yl)butyl]-N-[(3-fluoropyridin-2-yl)methyl]-1H-1,2,3-triazole-4-carboxamide] |
| < 100 | < 100 | Cc1ccc(CC(=O)Nc2cn(CC(F)CCn3cc(C(=O)NCc4cccc(OC(F)(F)F)c4)nn3)nn2)cn1 (centres unmarked) [Example 342, 1-(3-fluoro-4-{4-[2-(6-methylpyridin-3-yl)acetamido]-1H-1,2,3-triazol-1-yl}butyl)-N-{[3-(trifluoromethoxy)phenyl]methyl}-1H-1,2,3-triazole-4-carboxamide] |
| < 100 | < 100 | Cc1ccc(CC(=O)Nc2cn(CC(F)CCn3cc(C(=O)NCc4cc(OC(F)(F)F)ccc4F)nn3)nn2)cn1 (centres unmarked) [Example 343, 1-(3-fluoro-4-{4-[2-(6-methylpyridin-3-yl)acetamido]-1H-1,2,3-triazol-1-yl}butyl)-N-{[2-fluoro-5-(trifluoromethoxy)phenyl]methyl}-1H-1,2,3-triazole-4-carboxamide] |
| < 100 | < 100 | O=C(Cc1ccccn1)Nc1cn(CC(F)CCn2cc(C(=O)NCc3cccc(OC(F)(F)F)c3)nn2)nn1 (centres unmarked) [Example 347, 1-(3-fluoro-4-(4-(2-(pyridin-2-yl)acetamido)-1H-1,2,3-triazol-1-yl)butyl)-N-(3-(trifluoromethoxy)benzyl)-1H-1,2,3-triazole-4-carboxamide] |
| 100 to 500 | 100 to 500 | O=C(CN1CC(F)C1)Nc1cn(CCCCn2cc(C(=O)NCc3cc(OC(F)(F)F)ccc3F)nn2)nn1 [Example 350, N-{[2-fluoro-5-(trifluoromethoxy)phenyl]methyl}-1-(4-{4-[2-(3-fluoroazetidin-1-yl)acetamido]-1H-1,2,3-triazol-1-yl}butyl)-1H-1,2,3-triazole-4-carboxamide] |
| 100 to 500 | < 100 | O=C(CN1CC(F)(F)C1)Nc1cn(CCCCn2cc(C(=O)NCc3cc(OC(F)(F)F)ccc3F)nn2)nn1 [Example 353, 1-(4-{4-[2-(3,3-difluoroazetidin-1-yl)acetamido]-1H-1,2,3-triazol-1-yl}butyl)-N-{[2-fluoro-5-(trifluoromethoxy)phenyl]methyl}-1H-1,2,3-triazole-4-carboxamide] |
| < 100 | < 100 | O=C(CN1CCC(F)(F)C1)Nc1cn(CCCCn2cc(C(=O)NCc3cc(OC(F)(F)F)ccc3F)nn2)nn1 [Example 356, 1-(4-{4-[2-(3,3-difluoropyrrolidin-1-yl)acetamido]-1H-1,2,3-triazol-1-yl}butyl)-N-{[2-fluoro-5-(trifluoromethoxy)phenyl]methyl}-1H-1,2,3-triazole-4-carboxamide] |
| < 100 | < 100 | O=C(CN1CCC(F)(F)CC1)Nc1cn(CCCCn2cc(C(=O)NCc3cc(OC(F)(F)F)ccc3F)nn2)nn1 [Example 360, 1-(4-{4-[2-(4,4-difluoropiperidin-1-yl)acetamido]-1H-1,2,3-triazol-1-yl}butyl)-N-{[2-fluoro-5-(trifluoromethoxy)phenyl]methyl}-1H-1,2,3-triazole-4-carboxamide] |
| < 100 | < 100 | O=C(Cc1ccccn1)Nc1cn(CC(F)CCn2cc(C(=O)NCc3cc(OC(F)(F)F)ccc3F)nn2)nn1 (centres unmarked) [Example 363, 1-(3-fluoro-4-{4-[2-(pyridin-2-yl)acetamido]-1H-1,2,3-triazol-1-yl}butyl)-N-{[2-fluoro-5-(trifluoromethoxy)phenyl]methyl}-1H-1,2,3-triazole-4-carboxamide] |
| 500 to 5000 | 100 to 500 | O=C(Cc1ccc(Cl)cc1F)Nc1cn(CCCCn2cc(C(=O)NCc3ccccn3)nn2)nn1 [Example 366, 1-(4-{4-[2-(4-chloro-2-fluorophenyl)acetamido]-1H-1,2,3-triazol-1-yl}butyl)-N-(pyridin-2-ylmethyl)-1H-1,2,3-triazole-4-carboxamide] |
| 100 to 500 | < 100 | O=C(Cc1ccc(OC(F)(F)F)cc1F)Nc1cn(CCCCn2cc(C(=O)NCc3ccccn3)nn2)nn1 [Example 367, 1-[4-(4-{2-[2-fluoro-4-(trifluoromethoxy)phenyl]acetamido}-1H-1,2,3-triazol-1-yl)butyl]-N-(pyridin-2-ylmethyl)-1H-1,2,3-triazole-4-carboxamide] |

Reference: patent US10344025B2, “GLS1 inhibitors for treating disease” (Board of Regents, The University of Texas System, priority 2014, dated 2019)
